Starred links: 1 amine or outer side, 2 acyl side, 3 side chain; linkers in the order of their positions; H or OH if unused. Positions of bridges follow the written chain, without caps; N, C: chain ends. Non-standard residues stand in square brackets, D forms with d. Residues, ends and D or L forms follow the SMILES beside them. ξ: configuration not given here. *: point of attachment. X2 = Cc1cn([C@H]2C[C@H](n3cc(CCCC(=O)*)nn3)[C@@H](CO)O2)c(=O)[nH]c1=O; DAMPA = CN(Cc1cnc2nc(N)nc(N)c2n1)c1ccc(C(=O)*)cc1; Phe(F5) = N[C@@H](Cc1c(F)c(F)c(F)c(F)c1F)C(=O)O; Chlorambucil = O=C(CCCc1ccc(N(CCCl)CCCl)cc1)*; X1 = O=C(Cc1ccc(CSCCCCN[*:1])cc1)[*:2]; γGlu = O=C(O)[C@H](CCC(=O)[*:2])N[*:1]; 1Nal = N[C@@H](Cc1cccc2ccccc12)C(=O)O; 2Nal = N[C@@H](Cc1ccc2ccccc2c1)C(=O)O; mXylylene = c1cc(C[*:1])cc(C[*:2])c1; oXylylene = c1ccc(C[*:2])c(C[*:1])c1; Cha = N[C@@H](CC1CCCCC1)C(=O)O; Nicotinoyl = O=C(c1cccnc1)*; ξDisc = O=C(O)C1NCc2ccccc21; N(CH2CH2)2NH = C1CN(*)CCN1; β3hP = O=C(O)C[C@@H]1CCCN1; Inp = O=C(O)C1CCNCC1; Ahx = NCCCCCC(=O)O
Each molecule was assayed on HCT116/SCID (assay: Mouse subcutaneous engraftment model (HCT116/SCID)). Settings: not given.
Assay type: in vivo
Text: Based on analysis of p53/MDM2 and PMI-N8A/MDM2 crystal structures we placed various combinations of (L)- and (D)Cys residues in specific positions of PMI sequence considering the importance of particular amino acids for peptide bioactivity (see, e.g., Tables 1 and 2. Particular combinations were in turn tAB-ed using selected bis-halogeno-aryl compounds (see, e.g., FIG. 1) that fit into spatial arrangements/dimensions available, based on computer aided molecular modeling. Since ^DPMI-a presumably lack cell permeating properties, in addition we engineered several analogues as a cell permeating compounds containing multiple Arg residues simultaneously employing combination of D- and unusual amino acids to further enhance stability and binding properties of the peptide. Analogues were subsequently tested in vitro using HCT116 colorectal cancer cells and PrestoBlue™ assay (Invitrogen). […] Selected analogues were also tested in vivo using mouse subcutaneous engraftment model (HCT116/SCID).

Compound | tumor growth delay [days]
N=C(N)NCCC[C@@H](N)C(=O)N[C@@H](CCCNC(=N)N)C(=O)N[C@@H](Cc1c(F)c(F)c(F)c(F)c1F)C(=O)N[C@@H](CCCNC(=N)N)C(=O)N[C@@H]1CSCc2ccccc2CSC[C@@H](C(=O)N[C@H](CCCNC(=N)N)C(=O)N[C@@H](CC2CCCCC2)C(=O)N[C@@H](CCCNC(=N)N)C(=O)N2Cc3ccccc3C2C(N)=O)NC(=O)[C@H](Cc2cccc3ccccc23)NC(=O)[C@H](Cc2ccc(O)cc2)NC1=O (stereo partly drawn) [ArB14Co, Arg-Arg-PhF-Arg-Cys-Tyr-Na1-Cys-Arg-Cha-Arg-DISC] (H-[dR]R[Phe(F5)]R[dC]Y[1Nal]C[dR][Cha]R[ξDisc]-NH2; linker 5-8 via oXylylene) | ~14.6

Each molecule was assayed on HCT116 colorectal cancer cells (assay: not given). Settings: not given.

Compound | EC50 [µM]
C[C@@H](O)[C@H](N)C(=O)N[C@@H](CO)C(=O)N[C@@H](Cc1ccccc1)C(=O)N[C@@H](CCCNC(=N)N)C(=O)N[C@@H](CCCNC(=N)N)C(=O)N[C@@H](Cc1ccc(O)cc1)C(=O)N[C@H]1CS(=O)(=O)Cc2cccc(c2)CS(=O)(=O)C[C@@H](C(=O)N[C@@H](CO)C(=O)N2CCC[C@H]2C(N)=O)NC(=O)[C@H](CCCNC(=N)N)NC(=O)[C@H](CCCNC(=N)N)NC1=O [ArB14Dmx] | 142
CC(C)C[C@H](NC(=O)[C@H](CCCNC(=N)N)NC(=O)[C@@H]1CSCc2cccc(c2)CSC[C@H](NC(=O)[C@H](Cc2ccccc2)NC(=O)[C@@H](N)CCCNC(=N)N)C(=O)N[C@@H](CCCNC(=N)N)C(=O)N[C@@H](Cc2ccc(O)cc2)C(=O)N[C@@H](Cc2c[nH]c3ccccc23)C(=O)N1)C(=O)N[C@@H](CCCNC(=N)N)C(=O)N1CCC[C@H]1C(N)=O [ArB15Gm] (H-RFCRYWCRLRP-NH2; linker 3-7 via mXylylene; N-terminus assumed) | 52.2
C[C@H](NC(=O)[C@H](Cc1c(F)c(F)c(F)c(F)c1F)NC(=O)[C@H](CO)NC(=O)[C@@H](N)[C@@H](C)O)C(=O)N[C@@H]1CSCc2ccccc2CSC[C@@H](C(=O)N[C@H](C)C(=O)N[C@@H](CC2CCCCC2)C(=O)N[C@@H](CO)C(=O)N2CCNCC2)NC(=O)[C@H](Cc2cccc3ccccc23)NC(=O)[C@H](Cc2ccc(O)cc2)NC1=O [ArB14Ao, Thr-Ser-PhF-Ala-Cys-Tyr-Na1-Cys-Ala-Cha-Ser-Pipz] (H-TS[Phe(F5)]A[dC]Y[1Nal]C[dA][Cha]S-{N(CH2CH2)2NH}; linker 5-8 via oXylylene; N-terminus assumed) | 83.3
CC(C)C[C@H](NC(=O)[C@H]1CSCc2ccc(cc2)CSC[C@@H](NC(=O)[C@H](C)NC(=O)[C@H](Cc2ccccc2)NC(=O)[C@H](CO)NC(=O)[C@@H](N)[C@@H](C)O)C(=O)N[C@@H](Cc2ccc(O)cc2)C(=O)N[C@@H](Cc2c[nH]c3ccccc23)C(=O)NCC(=O)N1)C(=O)N[C@@H](CO)C(=O)N1CCC[C@H]1C(N)=O [ArB15Cp] | > 250
CC(C)C[C@H](NC(=O)[C@H](CCCNC(=N)N)NC(=O)[C@@H]1CSCc2ccccc2CSC[C@H](NC(=O)[C@H](Cc2ccccc2)NC(=O)[C@@H](N)CCCNC(=N)N)C(=O)N[C@@H](CCCNC(=N)N)C(=O)N[C@@H](Cc2ccc(O)cc2)C(=O)N[C@@H](Cc2c[nH]c3ccccc23)C(=O)N1)C(=O)N[C@@H](CCCNC(=N)N)C(=O)N1CCC[C@H]1C(N)=O [ArB15Fo] (H-RFCRYWCRLRP-NH2; linker 3-7 via oXylylene; N-terminus assumed) | 49.6
N=C(N)NCCC[C@@H](N)C(=O)N[C@@H](CCCNC(=N)N)C(=O)N[C@@H](Cc1ccc2ccccc2c1)C(=O)N[C@@H](CCCNC(=N)N)C(=O)N[C@@H]1CSCc2ccccc2CSC[C@@H](C(=O)N[C@H](CCCNC(=N)N)C(=O)N[C@@H](CC2CCCCC2)C(=O)N[C@@H](CCCNC(=N)N)C(=O)N2Cc3ccccc3C2C(N)=O)NC(=O)[C@H](Cc2cccc3ccccc23)NC(=O)[C@H](Cc2ccc(O)cc2)NC1=O (stereo partly drawn) [ArB14Bo, Arg-Arg-Na2-Arg-Cys-Tyr-Na1-Cys-Arg-Cha-Arg-DISC] (H-[dR]R[2Nal]R[dC]Y[1Nal]C[dR][Cha]R[ξDisc]-NH2; linker 5-8 via oXylylene; N-terminus assumed) | 10.7 ± 0.7
CN(Cc1cnc2nc(N)nc(N)c2n1)c1ccc(C(=O)N[C@@H](CCC(=O)NCCCCCC(=O)N[C@H](CCCNC(=N)N)C(=O)N[C@@H](CCCNC(=N)N)C(=O)N[C@@H](Cc2c(F)c(F)c(F)c(F)c2F)C(=O)N[C@@H](CCCNC(=N)N)C(=O)N[C@@H]2CSCc3ccccc3CSC[C@@H](C(=O)N[C@H](CCCNC(=N)N)C(=O)N[C@@H](CC3CCCCC3)C(=O)N[C@@H](CCCNC(=N)N)C(=O)N3Cc4ccccc4C3C(N)=O)NC(=O)[C@H](Cc3cccc4ccccc34)NC(=O)[C@H](Cc3ccc(O)cc3)NC2=O)C(=O)O)cc1 (stereo partly drawn) [ArB14Co-MTX, MTX-Ahx-Arg-Arg-PhF-Arg-Cys-Tyr-Na1-Cys-Arg-Cha-Arg-DISC] ({DAMPA-γGlu-Ahx}-[dR]R[Phe(F5)]R[dC]Y[1Nal]C[dR][Cha]R[ξDisc]-NH2; linker 5-8 via oXylylene) | 6.9 ± 0.4
Cc1cn([C@H]2C[C@H](n3cc(CCCC(=O)N[C@H](CCCNC(=N)N)C(=O)N[C@@H](CCCNC(=N)N)C(=O)N[C@@H](Cc4c(F)c(F)c(F)c(F)c4F)C(=O)N[C@@H](CCCNC(=N)N)C(=O)N[C@@H]4CSCc5ccccc5CSC[C@@H](C(=O)N[C@H](CCCNC(=N)N)C(=O)N[C@@H](CC5CCCCC5)C(=O)N[C@@H](CCCNC(=N)N)C(=O)N5Cc6ccccc6C5C(N)=O)NC(=O)[C@H](Cc5cccc6ccccc56)NC(=O)[C@H](Cc5ccc(O)cc5)NC4=O)nn3)[C@@H](CO)O2)c(=O)[nH]c1=O (stereo partly drawn) [ArB14Co-AZT, AZT-Arg-Arg-PhF-Arg-Cys-Tyr-Na1-Cys-Arg-Cha-Arg-DISC] (X2-[dR]R[Phe(F5)]R[dC]Y[1Nal]C[dR][Cha]R[ξDisc]-NH2; linker 5-8 via oXylylene; N-terminus assumed) | 30.2 ± 2.5
CC(C)C[C@H](NC(=O)[C@@H](C)NC(=O)[C@@H]1CSCc2ccccc2CSC[C@@H](NC(=O)[C@H](C)NC(=O)[C@H](Cc2ccccc2)NC(=O)[C@H](CO)NC(=O)[C@@H](N)[C@@H](C)O)C(=O)N[C@@H](Cc2ccc(O)cc2)C(=O)N[C@@H](Cc2c[nH]c3ccccc23)C(=O)N1)C(=O)N[C@@H](CO)C(=O)N1CCC[C@H]1C(N)=O [ArB14o] | 249
C[C@@H]1NC(=O)[C@H](CCCNC(=N)N)NC(=O)C[C@@H]2CCCN2C(=O)Cc2ccc(cc2)CSCCCCNC(=O)C2CCN(CC2)C(=O)[C@@H](CCCCN)NC(=O)[C@H](CCCNC(=N)N)NC(=O)[C@@H](Cc2c[nH]c3ccccc23)NC(=O)[C@H](C)NC(=O)[C@H](CCCNC(=N)N)NC(=O)C[C@@H]2CCCN2C(=O)Cc2ccc(cc2)CSCCCCNC(=O)C2CCN(CC2)C(=O)[C@@H](CCCCN)NC(=O)[C@H](CCCNC(=N)N)NC(=O)[C@@H](Cc2c[nH]c3ccccc23)NC1=O [ArBMim, [-Bmpa-bhPro-Arg-Ala-Trp-Arg-Lys-Inp-CH2CH2CH2CH2-S-]2] (cyclo([Inp][X1][β3hP]RA[dW]R[dK][Inp][X1][β3hP]RA[dW]R[dK])) | 23.4 ± 2.1
N=C(N)NCCC[C@@H](N)C(=O)N[C@@H](CCCNC(=N)N)C(=O)N[C@@H](Cc1c(F)c(F)c(F)c(F)c1F)C(=O)N[C@@H](CCCNC(=N)N)C(=O)N[C@@H]1CSCc2ccccc2CSC[C@@H](C(=O)N[C@H](CCCNC(=N)N)C(=O)N[C@@H](CC2CCCCC2)C(=O)N[C@@H](CCCNC(=N)N)C(=O)N2Cc3ccccc3C2C(N)=O)NC(=O)[C@H](Cc2cccc3ccccc23)NC(=O)[C@H](Cc2ccc(O)cc2)NC1=O (stereo partly drawn) [ArB14Co, Arg-Arg-PhF-Arg-Cys-Tyr-Na1-Cys-Arg-Cha-Arg-DISC] (H-[dR]R[Phe(F5)]R[dC]Y[1Nal]C[dR][Cha]R[ξDisc]-NH2; linker 5-8 via oXylylene) | 11.2 ± 1.2
N=C(N)NCCC[C@H](NC(=O)[C@H](Cc1c(F)c(F)c(F)c(F)c1F)NC(=O)[C@H](CCCNC(=N)N)NC(=O)[C@@H](CCCNC(=N)N)NC(=O)CCCCCNC(=O)CCCc1ccc(N(CCCl)CCCl)cc1)C(=O)N[C@@H]1CSCc2ccccc2CSC[C@@H](C(=O)N[C@H](CCCNC(=N)N)C(=O)N[C@@H](CC2CCCCC2)C(=O)N[C@@H](CCCNC(=N)N)C(=O)N2Cc3ccccc3C2C(N)=O)NC(=O)[C@H](Cc2cccc3ccccc23)NC(=O)[C@H](Cc2ccc(O)cc2)NC1=O (stereo partly drawn) [ArB14Co-CLB, CLB-Ahx-Arg-Arg-PhF-Arg-Cys-Tyr-Na1-Cys-Arg-Cha-Arg-DISC] ({Chlorambucil-Ahx}-[dR]R[Phe(F5)]R[dC]Y[1Nal]C[dR][Cha]R[ξDisc]-NH2; linker 5-8 via oXylylene) | 7.5 ± 1.1
CC(C)C[C@H](NC(=O)[C@H](CCCNC(=N)N)NC(=O)[C@H](CS)NC(=O)[C@H](Cc1c[nH]c2ccccc12)NC(=O)[C@H](Cc1ccc(O)cc1)NC(=O)[C@H](CCCNC(=N)N)NC(=O)[C@H](CS)NC(=O)[C@H](Cc1ccccc1)NC(=O)[C@H](CCCNC(=N)N)NC(=O)c1cccnc1)C(=O)N[C@@H](CCCNC(=N)N)C(=O)N1CCC[C@H]1C(N)=O [ArB15F/GNicr] (Nicotinoyl-RFCRYWCRLRP-NH2) | 64.5

Same assay, conditions: read-out: EC50 [μM] HCT-116; HCT116 colorectal cancer cells, PrestoBlue assay; NA = not active

Compound | EC50 [µM]
CC(C)C[C@H](NC(=O)[C@H]1CSCc2cccc(c2)Cc2cccc(c2)CSC[C@H](NC(=O)[C@H](C)NC(=O)[C@H](Cc2ccccc2)NC(=O)[C@H](CO)NC(=O)[C@@H](N)[C@@H](C)O)C(=O)N[C@@H](Cc2ccc(O)cc2)C(=O)N[C@@H](Cc2c[nH]c3ccccc23)C(=O)NCC(=O)N1)C(=O)N[C@@H](CO)C(=O)N1CCC[C@H]1C(N)=O [ArB15Eb] | 163

— patent US9556229B2, “Modification of peptides using a bis(thioether)arylbridge approach” (priority 2012, dated 2017)
